Data on nine compounds can be found in US20250129086A1, “COMPOUND FOR DEGRADING EGFR PROTEIN AND USE THEREOF” (TYK MEDICINES, INC., priority 2021, published 2025).

For assay [1], the system named is H1975 (EGFR L858R/T790M double mutation). As to the kind of experiment: Cell antiproliferative assay (CTG, 72 h), H1975. The class given is cell-based, human. The note with it: Homo sapiens, NCI-H1975, 72 h. The method in brief:
(§1)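 Cells seeded at 1500-2500 per well, compounds added about 24 h later as a 1:4 gradient from 10,000 nM top concentration in triplicate. After 72 h, viability read by CellTiter-Glo luminescence relative to 0.1% DMSO and blank-medium controls; IC50 from curve fitting.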

For assay [2], the system named is PC-9 (EGFR exon 19 deletion). As to the kind of experiment: Cell antiproliferative assay (CTG, 72 h), PC-9. The class given is cell-based, human. The conditions noted are these: Homo sapiens, PC-9, 72 h. A digest of the protocol:
as §1

Assay [3] deals with HCC827 (exon 19 deletion mutation). As to the kind of experiment: Cell antiproliferative assay (CTG, 72 h), HCC827. Format: cell-based, human. The note with it: Homo sapiens, HCC827, 72 h. The method in brief:
as §1

Assay [4] deals with T1, EGFR (Homo sapiens, UniProt P00533, DEL746-750).
T1 construct: host or cells: HCC827
As to the kind of experiment: EGFR PROTAC In Cell Western assay in HCC827. The class given is cell-based. The conditions noted are these: HCC827, EGFR degradation, 16 hours of incubation. An excerpt:
Test Example 2 EGFR PROTAC in Cell Western Assay
HCC827 cell culture medium was purchased from Corning. Cell line HCC827 was purchased from BeNa Culture Collection; EGF Receptor (D38B1) XP Rabbit mAb antibody and β-Actin (8H10D10) Mouse mAb antibody were from CST. IRDye 800CW, IRDye 680RD, and Intercept blocking solution (PBS) were purchased from Licor. Triton-100 was purchased from sigma, and 96-well black cell culture imaging microtiter plates were purchased from Agilent.
1) HCC827 cells were cell counted and cells were inoculated into 96-well black cell culture imaging microtiter plates at a density of 40,000 cells per well, with 100 μl per well. The plate was incubated overnight in a CO2 incubator.
2) Day 1: A gradient dilution of the compound to be tested was added to the cells of the culture plate (with a starting concentration of […], 9 concentrations, a dilution ratio of 1:3, 2 duplicate wells), with a final concentration of DMSO being 0.5%, and a blank control of DMSO without compound. The plate was placed in the cell culture incubator for a final 16 hours of incubation.
3) The culture medium was removed from the 96 wells with a pipette and the residual medium was washed with […] of PBS per well on a shaker for 5 min. After the removal of PBS, cells were quickly fixed by adding 150 μl of fresh fixation buffer (3.7% paraformaldehyde) and incubated for 20 min at room temperature.
4) The fixation buffer was removed and […] of Triton elution buffer (0.3% Triton-100) was added to wash for four times on a shaker for 5 minutes each time.
5)[…] LI-COR Odyssey blocking solution was added and the cells were incubated for 1.5 hours at room temperature with slow shaking on a shaker.
6) To block the samples, a primary antibody against EGFR and Actin were prepared using Antibody Dilution Buffer at a ratio of 1:300. The blocking solution was poured out and the diluted primary antibody was added (at a total volume of 50 μl/per well). The cell plate was covered and incubated at 4° C. overnight.
7) The cell plate was washed four times with PBS+Triton X-100 for 5 minutes each time.
8) Fluorescently labeled secondary antibodies IRDye® 680RD and IRDye® 800CW were diluted with Antibody Dilution Buffer (with a ratio of 1:600, at a total volume of 50 μl/well) and then incubated for one hour at room temperature, protected from light.
9) The cell plate was washed four times with PBS+Triton X-100 for 5 minutes each time.
After pipetting the PBS thoroughly, the plate was inverted and imaged on a Burroughs imager. A multiple exposure program was selected, IRDye 680RD Blot was chosen for the first channel, and IRDye 800CW Blot was chosen for the second channel. […] The blank group was the DMSO group, EGFR/Actin was calculated as the EGFR value of the corresponding sample wells, and the degradation rate=100-100*EGFR signal/DMSO signal. The DC50 and Dmax of the degraded EGFR proteins were calculated by fitting curves using the Prism software, 3-parameter method.

T1 sequence (P00533 with tags, fused parts or gaps DEL746-750): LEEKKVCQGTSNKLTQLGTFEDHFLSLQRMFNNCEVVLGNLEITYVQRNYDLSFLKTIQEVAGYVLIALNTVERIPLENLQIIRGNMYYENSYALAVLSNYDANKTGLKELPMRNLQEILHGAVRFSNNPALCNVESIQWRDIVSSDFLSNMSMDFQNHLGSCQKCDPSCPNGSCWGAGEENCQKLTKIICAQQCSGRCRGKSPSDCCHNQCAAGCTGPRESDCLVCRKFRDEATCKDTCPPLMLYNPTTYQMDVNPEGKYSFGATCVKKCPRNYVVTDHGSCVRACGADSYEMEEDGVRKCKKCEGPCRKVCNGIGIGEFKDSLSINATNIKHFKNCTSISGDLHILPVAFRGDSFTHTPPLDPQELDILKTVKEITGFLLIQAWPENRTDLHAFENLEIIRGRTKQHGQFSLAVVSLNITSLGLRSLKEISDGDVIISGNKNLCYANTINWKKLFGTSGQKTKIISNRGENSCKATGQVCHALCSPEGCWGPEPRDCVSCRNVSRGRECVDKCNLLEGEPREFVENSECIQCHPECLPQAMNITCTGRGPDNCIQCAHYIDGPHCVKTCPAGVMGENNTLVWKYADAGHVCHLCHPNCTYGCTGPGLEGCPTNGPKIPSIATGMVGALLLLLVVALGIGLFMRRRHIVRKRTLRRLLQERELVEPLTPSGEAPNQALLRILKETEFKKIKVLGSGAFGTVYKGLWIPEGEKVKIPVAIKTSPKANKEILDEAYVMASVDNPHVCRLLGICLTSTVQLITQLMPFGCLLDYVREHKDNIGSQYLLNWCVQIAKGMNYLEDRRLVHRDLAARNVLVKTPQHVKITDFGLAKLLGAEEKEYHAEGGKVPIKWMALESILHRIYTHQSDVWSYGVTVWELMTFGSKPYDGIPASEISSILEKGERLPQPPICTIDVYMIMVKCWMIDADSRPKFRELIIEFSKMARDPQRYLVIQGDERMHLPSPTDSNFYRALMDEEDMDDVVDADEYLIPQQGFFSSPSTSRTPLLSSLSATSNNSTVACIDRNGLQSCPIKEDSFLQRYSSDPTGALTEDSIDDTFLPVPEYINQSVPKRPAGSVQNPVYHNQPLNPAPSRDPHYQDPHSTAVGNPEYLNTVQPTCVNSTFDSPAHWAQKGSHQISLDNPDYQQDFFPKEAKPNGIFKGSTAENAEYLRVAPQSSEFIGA

Take `COc1cc(N2CCN(C(=O)CN3CCC(c4ccc(NC5CCC(=O)NC5=O)cc4)CC3)CC2)ccc1Nc1ncc(Cl)c(Nc2ccccc2C(C)=O)n1` (centres unmarked) [Compound T-12]: the IC50 (as a rule, the concentration needed to halve the response being measured) in assay [1] (Table 2, H1975 cells) is 10 to 100 nM; in assay [1] (Table 3, H1975 cells) it was 34.3 nM; in assay [2] (Table 2, PC-9 cells), 100 to 1000 nM; in assay [2] (Table 3, PC-9 cells) it was 324 nM; in assay [3] (Table 2, HCC827 cells), 100 to 1000 nM; in assay [3] (Table 3, HCC827 cells), 110 nM. Also, the Dmax – broadly, the greatest extent of degradation seen – in assay [4] (HCC827, Table 4) is 70 to 100%; in assay [4] (HCC827, Table 5) it was 70.5%. Moreover, the DC50 (usually the concentration at which degradation of the target reaches its halfway point) in assay [4] (Table 4) is 10 to 100 nM; in assay [4] (Table 5), 15.6 nM.
Take `COc1cc(N2CCN(C(=O)CN3CCC(c4ccc(NC5CCC(=O)NC5=O)cc4)CC3)CC2)ccc1Nc1ncc(Cl)c(Nc2ccccc2P(C)(C)=O)n1` (centres unmarked) [Compound T-13]: the IC50 in assay [1] (Table 2, H1975 cells) lay in the range of 10 to 100 nM; in assay [2] (Table 2, PC-9 cells), 100 to 1000 nM; in assay [3] (Table 2, HCC827 cells), 100 to 1000 nM. The compound further had a Dmax in assay [4] (HCC827, Table 4) of 70 to 100%. The compound further registered a half-maximal degradation concentration (DC50) in assay [4] (Table 4) of at most 10 nM.
Take `COc1cc(N2CCN(C(=O)CN3CCC(c4ccc(NC5CCC(=O)NC5=O)cc4)CC3)CC2)ccc1Nc1ncc(C(F)(F)F)c(Nc2ccccc2C(C)=O)n1` (centres unmarked) [Compound T-47]: the IC50 fell in the range of 10 to 100 nM in assay [1] (Table 2, H1975 cells); 100 to 1000 nM in assay [2] (Table 2, PC-9 cells); 10 to 100 nM in assay [3] (Table 2, HCC827 cells). In assay [4] (HCC827, Table 4), this compound gave a Dmax of 50 to 70%. This compound came in with a 50% degradation concentration (DC50) in assay [4] (Table 4) of 10 to 100 nM.
As for `COc1cc(N2CCN(C(=O)CN3CCC(c4ccc(NC5CCC(=O)NC5=O)cc4)CC3)CC2)c(C)cc1Nc1ncc(Cl)c(Nc2ccccc2C(C)=O)n1` (centres unmarked) [Compound T-57], the IC50 in assay [1] (Table 2, H1975 cells) was 10 to 100 nM; in assay [2] (Table 2, PC-9 cells), 100 to 1000 nM; in assay [3] (Table 2, HCC827 cells), 100 to 1000 nM. For the same compound, in assay [4] (HCC827, Table 4), the Dmax is 50 to 70%. In assay [4] (Table 4), this compound yielded a DC50 of 10 to 100 nM.
Regarding `COc1cc(N2CCN(C(=O)CN3CCC(c4ccc(NC5CCC(=O)NC5=O)cc4)CC3)CC2C)ccc1Nc1ncc(Cl)c(Nc2ccccc2C(C)=O)n1` (centres unmarked) [Compound T-60], the IC50 was 10 to 100 nM in assay [1] (Table 2, H1975 cells); 100 to 1000 nM in assay [2] (Table 2, PC-9 cells); 100 to 1000 nM in assay [3] (Table 2, HCC827 cells). Also, the Dmax in assay [4] (HCC827, Table 4) was 50 to 70%. Moreover, the half-maximal degradation concentration (DC50) in assay [4] (Table 4) was 10 to 100 nM.
Take `COc1cc(N2CCN(C(=O)CN3CCC(c4ccc(NC5CCC(=O)NC5=O)cc4)CC3)C(C)C2)ccc1Nc1ncc(Cl)c(Nc2ccccc2C(C)=O)n1` (centres unmarked) [Compound T-63]: the IC50 in assay [1] (Table 2, H1975 cells) lay in the range of 10 to 100 nM; in assay [2] (Table 2, PC-9 cells) it was 100 to 1000 nM; in assay [3] (Table 2, HCC827 cells), 100 to 1000 nM. In assay [4] (HCC827, Table 4), this compound came in with a Dmax of 50 to 70%. The DC50 in assay [4] (Table 4) lay in the range of 100 to 1000 nM.
Take `COc1cc(N2CC3(CN(C(=O)CN4CCC(c5ccc(NC6CCC(=O)NC6=O)cc5)CC4)C3)C2)ccc1Nc1ncc(Cl)c(Nc2ccccc2C(C)=O)n1` (centres unmarked) [Compound T-66]: the IC50 was 10 to 100 nM in assay [1] (Table 2, H1975 cells); at least 1000 nM in assay [2] (Table 2, PC-9 cells); 100 to 1000 nM in assay [3] (Table 2, HCC827 cells). In assay [4] (HCC827, Table 4), this compound displayed a Dmax of under 50%. For the same compound, the half-maximal degradation concentration (DC50) in assay [4] (Table 4) was 10 to 100 nM.
For `COc1cc(N2CCN(C(=O)CN3CCN(c4ccc(NC5CCC(=O)NC5=O)cc4)CC3)CC2)ccc1Nc1ncc(Br)c(Nc2ccccc2C(C)=O)n1` (centres unmarked) [Compound T-84], the IC50 was in the range of 10 to 100 nM in assay [1] (Table 2, H1975 cells); 100 to 1000 nM in assay [2] (Table 2, PC-9 cells); 100 to 1000 nM in assay [3] (Table 2, HCC827 cells). The same compound displayed a Dmax in assay [4] (HCC827, Table 4) of 70 to 100%. For the same compound, the 50% degradation concentration (DC50) in assay [4] (Table 4) fell in the range of 10 to 100 nM.
`C=CC(=O)Nc1cc(Nc2ncc(Cl)c(Nc3ccccc3C(C)=O)n2)c(OC)cc1N1CCN(C(=O)CN2CCC(c3ccc(NC4CCC(=O)NC4=O)cc3)CC2)CC1` (centres unmarked) [Compound T-91]: the IC50 in assay [1] (Table 2, H1975 cells) is 10 to 100 nM; in assay [2] (Table 2, PC-9 cells) it was 100 to 1000 nM; in assay [3] (Table 2, HCC827 cells), 10 to 100 nM. For the same compound, the Dmax in assay [4] (HCC827, Table 4) fell in the range of 50 to 70%. Besides, the DC50 in assay [4] (Table 4) lay within 10 to 100 nM.
